According to ChEMBL document CHEMBL5233271, “Discovering the Mechanisms of Wikstroelide E as a Potential HIV-Latency-Reversing Agent by Transcriptome Profiling” (J Nat Prod, 2021):
Calls of active or inactive are those of the source. No cut-off for these calls is given here.

Key:
[1] = test system: J-Lat Tat-GFP Clone A2; test: Cytotoxicity against human J-Lat Tat-GFP Clone A2 cells at 1 uM incubated for 72 hrs; type: toxicity, cell-based; conditions: j-lat tat-gfp clone a2, 72 h
[2] = test system: Human immunodeficiency virus; test: Reactivation of latent HIV in human NH1 cells assessed as fold change measured after 24 hrs by luciferase based analysis relative to -prostratin; type: functional
[3] = test system: NH2; test: Activation of NFkappaB signalling pathway in human NH2 cells assessed as induction of IkappaBalpha degradation measured after 1 hr by Western blot analysis; type: cell-based; conditions: filed as activator, dose 0-80 nM
[4] = test system: Human immunodeficiency virus; test: Reactivation of latent HIV in human NH1 cells at 10 nM by luciferase based analysis; type: functional, organism-based; conditions: time 6-36 hrs, TDE = time-dependent effect
[5] = test system: J-Lat Tat-GFP Clone A2; test: Activation of NFkappaB signalling pathway in human J-Lat Tat-GFP Clone A2 cells assessed as increase in IkappaBalpha phosphorylation at 40 nM by Western blot analysis; type: cell-based; conditions: filed as activator, time 5-120 min, TDE = time-dependent effect
[6] = Cytotoxicity against human NH2 cells at 1 uM incubated for 72 hrs; type: toxicity, cell-based; conditions: nh2, 72 h
[7] = test system: J-Lat Tat-GFP Clone A2; test: Downregulation of CCNB1 gene expression in human J-Lat Tat-GFP Clone A2 cells at 10 nM measured after 6 hrs by transcriptome analysis; type: functional, cell-based
[8] = test system: J-Lat Tat-GFP Clone A2; test: Upregulation of DDRGK1 gene expression in human J-Lat Tat-GFP Clone A2 cells at 10 nM measured after 6 hrs by transcriptome analysis; type: functional, cell-based
[9] = test system: Human immunodeficiency virus; test: HIV-latency reversing activity in human NH2 cells at 10 nM pretreated with JAK inhibitor, -decernotinib for 1 hr followed by compound addition and measured after 12 hrs by luciferase based assay; type: functional, organism-based
[10] = test system: Human immunodeficiency virus; test: Reactivation of latent HIV in human J-Lat Tat-GFP Clone A2 cells measured after 24 hrs by fluorescence based analysis; type: functional, organism-based; conditions: dose 0.5-40 nM
[11] = test system: Human immunodeficiency virus; test: HIV-latency reversing activity in human NH2 cells at 10 nM pretreated with PKC inhibitor, Go6983 for 1 hr followed by compound addition and measured after 12 hrs by luciferase based assay; type: functional, organism-based
[12] = Cytotoxicity against human J-Lat 2D10 cells at 1 uM incubated for 72 hrs; type: toxicity, cell-based
[13] = test system: J-Lat Tat-GFP Clone A2; test: Downregulation of INTS10 gene expression in human J-Lat Tat-GFP Clone A2 cells at 10 nM measured after 6 hrs by transcriptome analysis; type: functional, cell-based
[14] = test system: Human immunodeficiency virus; test: Reactivation of latent HIV in human J-Lat Tat-GFP Clone A2 cells assessed as increase in GFP expression at 10 nM by live fluorescence imaging analysis; type: functional, organism-based; conditions: time 6-36 hrs, TDE = time-dependent effect
[15] = test system: J-Lat Tat-GFP Clone A2; test: Upregulation of CLIC1 gene expression in human J-Lat Tat-GFP Clone A2 cells at 10 nM measured after 6 hrs by transcriptome analysis; type: functional, cell-based
[16] = test system: J-Lat Tat-GFP Clone A2; test: Upregulation of CD69 gene expression in human J-Lat Tat-GFP Clone A2 cells at 10 nM measured after 6 hrs by transcriptome analysis; type: functional, cell-based
[17] = test system: J-Lat Tat-GFP Clone A2; test: Upregulation of DGKA gene expression in human J-Lat Tat-GFP Clone A2 cells at 10 nM measured after 6 hrs by transcriptome analysis; type: functional, cell-based
[18] = test system: J-Lat Tat-GFP Clone A2; test: Upregulation of BZW1 gene expression in human J-Lat Tat-GFP Clone A2 cells at 10 nM measured after 6 hrs by transcriptome analysis; type: functional, cell-based
[19] = test system: J-Lat Tat-GFP Clone A2; test: Downregulation of CNBP gene expression in human J-Lat Tat-GFP Clone A2 cells at 10 nM measured after 6 hrs by transcriptome analysis; type: functional, cell-based
[20] = test system: NH2; test: Activation of NFkappaB signalling pathway in human NH2 cells assessed as increase in translocation of p65 from cytoplasm to nucleus at 40 nM pretreated with PKC inhibitor, Go6983 for 1 hr followed by compound addition and measured after 12 hrs by Western blot analysis; type: cell-based
[21] = test system: J-Lat Tat-GFP Clone A2; test: Activation of NFkappaB signalling pathway in human J-Lat Tat-GFP Clone A2 cells assessed as induction of IkappaBalpha degradation at 40 nM by Western blot analysis; type: cell-based; conditions: filed as activator, time 5-120 min, TDE = time-dependent effect
[22] = test system: Human immunodeficiency virus; test: Reactivation of latent HIV in human NH2 cells measured after 24 hrs by luciferase based analysis; type: functional, organism-based; conditions: dose 0.5-10 nM
[23] = test system: NH2; test: Activation of NFkappaB signalling pathway in human NH2 cells assessed as induction of IkappaBalpha degradation at 40 nM by Western blot analysis; type: cell-based; conditions: filed as activator, time 5-120 min, TDE = time-dependent effect
[24] = test system: J-Lat Tat-GFP Clone A2; test: Upregulation of FMNL1 gene expression in human J-Lat Tat-GFP Clone A2 cells at 10 nM measured after 6 hrs by transcriptome analysis; type: functional, cell-based
[25] = test system: Human immunodeficiency virus; test: Reactivation of latent HIV in human J-Lat 2D10 cells at 10 nM by fluorescence based analysis; type: functional, organism-based; conditions: time 6-36 hrs, TDE = time-dependent effect
[26] = test system: J-Lat Tat-GFP Clone A2; test: Upregulation of SACM1L gene expression in human J-Lat Tat-GFP Clone A2 cells at 10 nM measured after 6 hrs by transcriptome analysis; type: functional, cell-based
[27] = test system: J-Lat Tat-GFP Clone A2; test: Upregulation of CORO1A gene expression in human J-Lat Tat-GFP Clone A2 cells at 10 nM measured after 6 hrs by transcriptome analysis; type: functional, cell-based

C=C(C)[C@]12C[C@@H](C)[C@@]34O[C@]5(CCCCCCC[C@H](C)[C@H]6[C@H](C)C(=O)[C@@](O)([C@H](O)[C@@]7(CO)O[C@H]7[C@H]3[C@H]1O5)[C@@H]64)O2
Activity [1]: Non-Toxic | fold change (FC) [2]: 2500 | Activity [3]: Dose-Dependent Effect | Activity [4]: Tde | Activity [5]: Tde | Activity [6]: Non-Toxic | Activity [7]: Active | Activity [8]: Active | Activity [9]: inactive | Activity [10]: Dose-Dependent Effect | Activity [11]: inactive | Activity [12]: Non-Toxic | Activity [13]: Active | Activity [14]: Tde | Activity [15]: Active | Activity [16]: Active | Activity [17]: Active | Activity [18]: Active | Activity [19]: Active | Activity [20]: inactive | Activity [21]: Tde | Activity [22]: Dose-Dependent Effect | Activity [23]: Tde | Activity [24]: Active | Activity [25]: Tde | Activity [26]: Active | Activity [27]: Active
